Target: T1, recombinant human ARG1 (Homo sapiens, UniProt P05089)
T1 sequence (P05089 1-322): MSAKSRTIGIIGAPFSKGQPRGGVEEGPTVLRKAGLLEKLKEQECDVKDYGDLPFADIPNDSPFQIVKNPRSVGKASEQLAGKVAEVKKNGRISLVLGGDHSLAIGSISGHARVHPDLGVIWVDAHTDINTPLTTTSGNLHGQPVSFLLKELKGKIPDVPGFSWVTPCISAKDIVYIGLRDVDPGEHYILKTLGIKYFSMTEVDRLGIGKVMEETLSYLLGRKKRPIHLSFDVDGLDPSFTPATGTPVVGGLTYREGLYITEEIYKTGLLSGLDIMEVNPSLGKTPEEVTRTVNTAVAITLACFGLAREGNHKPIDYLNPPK
Experiment: Arginase coupled enzymatic assay using recombinant human ARG1
Assay type: biochemical
Details: 2 nM ARG1, 0.8 mM L-Arginine, 10 mM sodium phosphate pH 7.4, 37° C.; read-out: Potency: Arginase 1 inhibition IC50
Procedure: Measurement of Compound Potency by Arginase Coupled Enzymatic Assay Using Recombinant Human ARG1 and ARG2
Purified recombinant human ARG1 and ARG2 were prepared in 50 mM Bicine, pH 8.5, 100 μM MnCl2, 20% glycerol and 1 mM DTT at a final stock concentration of 14.4 μM and 7.56 μM respectively. 2.5 nM of either ARG1 or ARG2 were incubated with varying concentrations of compounds in 10 mM sodium phosphate, pH 7.4, 0.1 mM MnCl2 and 2.5% DMSO in a total volume of 40 μl in a 384-well microplate (Corning™ #3640) at 37° C. for 1 h. The arginase enzymatic reaction was initiated by addition of 10 μl of 4 mM L-Arginine pre-incubated in 10 mM sodium phosphate, pH 7.4, and 0.1 mM MnCl2 at 37° C. into the enzyme and compound mixture, giving the final reaction conditions: 2 nM of ARG1 or ARG2 and 0.8 mM of L-Arginine in 10 mM sodium phosphate, pH 7.4, 0.1 mM MnCl2 and 2% DMSO with varying concentrations of compounds. Following 2 h incubation at 37° C., the arginase enzymatic reaction was stopped by transfer of 10 μl of reaction into 10 μl of detection mix (204 μM Amino-2-Borono-6-Hexanoic Acid, 0.25 μl Arginase Enzyme mix, 0.25 μl Arginase Developer, 0.25 μl Arginase Converter Enzyme in Arginase Assay Buffer from Arginase Activity Colorimetric Assay Kit, BioVision Inc. #K755-100) in a transparent 384-well microplate (Greiner #781801). The plate was immediately put into a plate reader (Synergy™ Neo2 Multi-Mode Microplate Reader) to monitor absorption at 570 nm at 37° C. Absorption values at 12-20 min were used to calculate compound potency. The value of the DMSO blank (MIN inhibition=100% activity) was used as a negative control. The positive control was established by adding 8 μl of enzyme and DMSO mix into 10 μl of detection mix followed by addition of 2 μl of L-Arginine (MAX inhibition=0% activity). To calculate the percent activity, Equation 1 was used. Abs570nm is the value at a given compound concentration:
A counter-screen was performed to identify any inhibition of the coupling enzymes by the test compounds. 10 μl of 0.26 mM of urea with varying concentrations of compounds in 10 mM sodium phosphate, pH 7.4, 0.1 mM MnCl2 and 2% DMSO were added into 10 μl of detection mix in place of the arginase enzymatic reaction mix. Absorption was monitored at 570 nm as described above. The values of a no substrate blank (without urea; MAX inhibition=0% activity) and a DMSO blank (MIN inhibition=100% activity) were used as positive and negative controls respectively. […] Inactivity in the counter-screen was used to confirm that results accurately reflected IC50 values for ARG1 and ARG2.

| IC50 [nM] | SMILES |
| --- | --- |
| 100 to 1000 | NCCN1C[C@@H]2C[C@@](N)(C(=O)O)[C@@H](CCCB(O)O)[C@@H]2C1 |
| < 100 | N[C@@]1(C(=O)O)C[C@H]2CNC[C@H]2[C@@H]1CCCB(O)O |
| 100 to 1000 | C[C@H](N)C(=O)N1C[C@@H]2C[C@@](N)(C(=O)O)[C@@H](CCCB(O)O)[C@@H]2C1 |
| 100 to 1000 | C[C@H](N)C(=O)N1C[C@@H]2C[C@](N)(C(=O)O)[C@H](CCCB(O)O)[C@@H]2C1 |
| 100 to 1000 | N[C@]1(C(=O)O)C[C@H]2CN(C(=O)[C@@H]3CCCN3)C[C@H]2[C@H]1CCCB(O)O |
| 100 to 1000 | N[C@@]1(C(=O)O)C[C@H]2CN(C3COC3)C[C@H]2[C@@H]1CCCB(O)O |
| < 100 | N[C@@]1(C(=O)O)C[C@H]2CN(C(CO)CCl)C[C@H]2[C@@H]1CCCB(O)O (some centres unmarked) |
| 100 to 1000 | CC1(C)[C@H]2C[C@@H]3OB(CCC[C@H]4[C@@H]5CNC[C@@H]5C[C@@]4(N)C(=O)O)O[C@]3(C)[C@@H]1C2 |
